Literature values as cited in US6689905B2, “Stereoisomers of 3-aminotricyclo[2.2.1.0(2.6)]heptane-1,3-dicarboxylic acid” (Wyeth, priority 2001, dated 2004).

Target: type 2 mGlu receptors (Homo sapiens, UniProt Q14416)
Conditions: literature description

Sequence of type 2 mGlu receptors (Q14416 19-872): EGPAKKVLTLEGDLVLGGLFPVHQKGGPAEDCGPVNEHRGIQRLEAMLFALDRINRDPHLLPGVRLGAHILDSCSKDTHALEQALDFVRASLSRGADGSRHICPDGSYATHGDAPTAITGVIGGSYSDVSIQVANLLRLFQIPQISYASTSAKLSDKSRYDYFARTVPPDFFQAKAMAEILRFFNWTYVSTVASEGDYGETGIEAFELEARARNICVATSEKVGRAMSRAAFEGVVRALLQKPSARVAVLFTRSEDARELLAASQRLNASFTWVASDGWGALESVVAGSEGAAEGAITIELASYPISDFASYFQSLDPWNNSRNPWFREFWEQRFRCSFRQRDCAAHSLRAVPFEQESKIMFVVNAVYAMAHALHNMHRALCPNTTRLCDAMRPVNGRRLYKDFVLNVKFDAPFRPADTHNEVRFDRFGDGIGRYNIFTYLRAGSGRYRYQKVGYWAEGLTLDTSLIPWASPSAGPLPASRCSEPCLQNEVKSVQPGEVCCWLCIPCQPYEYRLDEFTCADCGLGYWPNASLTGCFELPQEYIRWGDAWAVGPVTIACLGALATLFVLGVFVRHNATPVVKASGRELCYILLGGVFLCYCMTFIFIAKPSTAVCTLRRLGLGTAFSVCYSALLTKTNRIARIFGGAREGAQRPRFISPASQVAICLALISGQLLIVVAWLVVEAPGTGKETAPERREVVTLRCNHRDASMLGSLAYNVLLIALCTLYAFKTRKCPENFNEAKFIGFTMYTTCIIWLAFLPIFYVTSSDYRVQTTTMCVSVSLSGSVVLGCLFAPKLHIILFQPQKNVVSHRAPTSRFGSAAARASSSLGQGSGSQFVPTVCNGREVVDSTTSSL

- functional character at type 2 mGlu receptors: agonists
SMILES: NC1(C(=O)O)CC2CCC1C2C(=O)O (stereo not drawn) [ABHD-I, 2-endo-aminobicyclo[2.2.1]heptane-2-exo-7-anti-dicarboxylic acid]
